# Tests used:
# [1] = system: Japanese medaka (Oryzias latipes); assay: Fish short-term reproduction assay (FSTRA, OECD TG229), 21-day flow-through exposure; conditions: for Fertility rate (%) / Mortality (%) Female / Mortality (%) Male / Number of fertilized eggs / Number of total eggs / SSC Female / SSC Male / VTG (ng/mg of liver) Female / VTG (ng/mg of liver) Male: 21 days; for GSI Female / GSI Male / HSI Female / HSI Male / Length Female / Length Male / Weight Female / Weight Male: at completion of exposure
# Protocol: The experimental studies on the FSTRA for the 16 chemicals were conducted in two laboratories in Japan, the National Institute for Environmental Studies (NIES, Lab‐1) and the Institute of Environmental Ecology, IDEA Consultants Inc. (Lab‐2), in accordance with OECD TG229 (OECD, [2012a]) (Table 1).
# The NIES‐R strain of Japanese medaka (O. latipes), one of the orange‐red varieties, was used in all the 16 chemical studies. For the studies, healthy and mature male and female medakas at 16 ± 2 weeks old were selected from a single‐stock population, which were bred within the test facilities. The test fish were maintained in conditions similar to the assay for at least 7 days, and spawning status was checked during the acclimation period. On the day the chemical exposure commenced, to ensure balanced distribution of test fish between the treatment groups for the reproductive status of the fish, the replicate vessels (fish tanks), with each containing three male and female medaka, were distributed to each treatment and control group, for example, by a randomized block design based on the number of fertilized eggs laid in the last 5–7 days during the acclimation, in each assay.
# The water solubility of the test chemical was also taken into consideration when deciding the highest test concentration. To set the lower concentrations, a spacing factor ranging between two and five was used. All assays included a dilution water control (DWC).
# Test solutions at the selected concentrations were prepared by diluting a stock solution, which was prepared by an adequate method depending on the physicochemical properties of the test chemicals, for example, by simply mixing the test chemical in dilution water by stirring and/or sonicating for an appropriate time or by using a solid–liquid saturator. In the two laboratories, flow‐through exposure systems, in which a series of test solutions at the target concentrations can be continuously prepared and delivered to test vessels at controlled flow rates (Haselman et al., [2016]; Watanabe et al., [2017]), were used for the exposure experiments.
# In the FSTRA, three mature adult males and females in a test vessel were exposed together to the test chemicals in flow‐through condition for 3 weeks. In all the assays, each treatment group, including the DWC group, contained four replicate tanks. During the exposure period, the fish were fed a sufficient amount of live brine shrimp nauplii (newly hatched Artemia sp.) for daily spawning ad libitum. Fecal material in the tanks was appropriately removed by siphoning after feeding. Water temperature of test solutions was recorded for at least one vessel in each treatment and control group every day and for all vessels at least once a week. Furthermore, dissolved oxygen and pH of test solutions were measured for all test vessels at least once a week. Mortality and abnormal behavior and appearance in the fish exposed to test chemicals were daily observed, and any fish that died were removed from the tank as soon as possible. To assess the reproductive status, all eggs females spawned were collected every day. At the completion of the chemical exposure, surviving fish in each tank were sampled.
# The eggs females released on the bottom of the tank were collected by siphoning, and the egg clutches still on female abdomen were carefully picked from the body of the females captured using a small net. All the eggs collected were microscopically observed and separately counted for fertilized and unfertilized.
# Japanese medaka = conditions: long-term exposure, MMT; ref Flynn et al. (2017); cited from earlier work
compound,measurement,setting,value
"C[C@]12CC[C@@H]3c4ccc(O)cc4CC[C@H]3[C@@H]1CC[C@@H]2O [E2, 17β‐Estradiol]",LOEC on VTG induction in male (in molarity),"[1]; hepatic VTG, 21-day exposure",81 pM
same,LOEC for VTG induction in males,"[1]; hepatic VTG, 21-day exposure, measured conc.",22.1 ng/L
same,LOEC on male VTG induction: times smaller than the LOEC for CMP,[1]; in vivo,"more than 8,000 times"
same,"effect on male GSI, in words",[1]; in vivo,significant decreasing
same,Fertility rate (%),[1]; measured conc. 22.1 ng/L,90%
same,Mortality (%) Female,[1]; measured conc. 22.1 ng/L,0%
same,Mortality (%) Male,[1]; measured conc. 22.1 ng/L,0%
same,Number of fertilized eggs,[1]; measured conc. 22.1 ng/L,18
same,Number of total eggs,[1]; measured conc. 22.1 ng/L,20 ± 2.9 /female/day
same,SSC Female,[1]; measured conc. 22.1 ng/L,0 ± 0
same,SSC Male,[1]; measured conc. 22.1 ng/L,109 ± 10
same,VTG (ng/mg of liver) Female,[1]; measured conc. 22.1 ng/L,"3,420 ± 991 ng/mg of liver"
same,VTG (ng/mg of liver) Male,[1]; measured conc. 22.1 ng/L,424 ± 379 ng/mg of liver
same,GSI Female,[1]; measured conc. 22.1 ng/L,10.3%
same,GSI Male,[1]; measured conc. 22.1 ng/L,0.82%
same,HSI Female,[1]; measured conc. 22.1 ng/L,4.4%
same,HSI Male,[1]; measured conc. 22.1 ng/L,2.0%
same,Length Female,[1]; measured conc. 22.1 ng/L,36.8 mm
same,Length Male,[1]; measured conc. 22.1 ng/L,36.4 mm
same,Weight Female,[1]; measured conc. 22.1 ng/L,573 mg
same,Weight Male,[1]; measured conc. 22.1 ng/L,507 mg
same,Fertility rate (%),[1]; measured conc. 115 ng/L,95%
same,Mortality (%) Female,[1]; measured conc. 115 ng/L,8%
same,Mortality (%) Male,[1]; measured conc. 115 ng/L,8%
same,Number of fertilized eggs,[1]; measured conc. 115 ng/L,21
same,Number of total eggs,[1]; measured conc. 115 ng/L,22 ± 1.5 /female/day
same,SSC Female,[1]; measured conc. 115 ng/L,0 ± 0
same,SSC Male,[1]; measured conc. 115 ng/L,112 ± 10
same,VTG (ng/mg of liver) Female,[1]; measured conc. 115 ng/L,"5,500 ± 1,370 ng/mg of liver"
same,VTG (ng/mg of liver) Male,[1]; measured conc. 115 ng/L,"13,400 ± 1900 ng/mg of liver"
same,GSI Female,[1]; measured conc. 115 ng/L,11.4%
same,GSI Male,[1]; measured conc. 115 ng/L,0.67%
same,HSI Female,[1]; measured conc. 115 ng/L,4.3%
same,HSI Male,[1]; measured conc. 115 ng/L,2.5%
same,Length Female,[1]; measured conc. 115 ng/L,35.6 mm
same,Length Male,[1]; measured conc. 115 ng/L,35.8 mm
same,Weight Female,[1]; measured conc. 115 ng/L,517 mg
same,Weight Male,[1]; measured conc. 115 ng/L,512 mg
same,Fertility rate (%),[1]; measured conc. 553 ng/L,85%
same,Mortality (%) Female,[1]; measured conc. 553 ng/L,17%
same,Mortality (%) Male,[1]; measured conc. 553 ng/L,8%
same,Number of fertilized eggs,[1]; measured conc. 553 ng/L,9.4
same,Number of total eggs,[1]; measured conc. 553 ng/L,13 ± 1.9 /female/day
same,SSC Female,[1]; measured conc. 553 ng/L,0 ± 0
same,SSC Male,[1]; measured conc. 553 ng/L,97 ± 14
same,VTG (ng/mg of liver) Female,[1]; measured conc. 553 ng/L,"18,900 ± 5,910 ng/mg of liver"
same,VTG (ng/mg of liver) Male,[1]; measured conc. 553 ng/L,"19,900 ± 3,570 ng/mg of liver"
same,GSI Female,[1]; measured conc. 553 ng/L,11.2%
same,GSI Male,[1]; measured conc. 553 ng/L,0.31%
same,HSI Female,[1]; measured conc. 553 ng/L,4.4%
same,HSI Male,[1]; measured conc. 553 ng/L,3.2%
same,Length Female,[1]; measured conc. 553 ng/L,35.0 mm
same,Length Male,[1]; measured conc. 553 ng/L,35.0 mm
same,Weight Female,[1]; measured conc. 553 ng/L,512 mg
same,Weight Male,[1]; measured conc. 553 ng/L,488 mg
same,"effect on fecundity (number of total eggs), in words","[1]; within the test concentrations, 21-day exposure",significant decrease
same,LOEC on male VTG induction,Japanese medaka,28 ng/L

# Source: publication PMC8359193, “Summary of reference chemicals evaluated by the fish short‐term reproduction assay, OECD TG229, using Japanese Medaka, Oryzias latipes” (Journal of Applied Toxicology, 2021)
